Data published in paper PMC8245078, “Development of novel benzofuran-isatin conjugates as potential antiproliferative agents with apoptosis inducing mechanism in Colon cancer” (Journal of Enzyme Inhibition and Medicinal Chemistry, 2021).
Read-outs that look alike come from different tables or passages of the source.

Tests used:
Assay in all cases: NCI single dose screening (10 µM)
Format in all cases: cell-based
[1] = test system: LOX IMVI; details: Homo sapiens, read-out: GI% (cell growth inhibition percentage)
[2] = test system: SK-MEL-2; details: Homo sapiens
[3] = test system: PC-3; details: Homo sapiens
[4] = test system: MALME-3M; details: Homo sapiens, read-out: GI% (cell growth inhibition percentage)
[5] = test system: A549/ATCC; details: Homo sapiens
[6] = test system: UACC-257; details: Homo sapiens
[7] = test system: SR; details: Homo sapiens, read-out: GI% (cell growth inhibition percentage)
[8] = test system: SW-620; details: Homo sapiens
[9] = test system: HS 578 T; details: Homo sapiens, read-out: GI% (cell growth inhibition percentage)
[10] = test system: UACC-62; details: Homo sapiens
[11] = test system: T-47D; details: Homo sapiens, T47D, read-out: GI% (cell growth inhibition percentage)
[12] = test system: SK-MEL-28; details: Homo sapiens
[13] = test system: HCT-15; details: Homo sapiens
[14] = test system: SNB-19; details: Homo sapiens
[15] = test system: UO-31; details: Homo sapiens
[16] = test system: IGROV1; details: Homo sapiens
[17] = test system: MDA-MB-435; details: Homo sapiens
[18] = test system: NCI-H460; details: Homo sapiens
[19] = test system: HOP-92; details: Homo sapiens
[20] = test system: SN12C; details: Homo sapiens, read-out: GI% (cell growth inhibition percentage)
[21] = test system: OVCAR-3; details: Homo sapiens
[22] = test system: 786-0; details: Homo sapiens
[23] = test system: DU-145; details: Homo sapiens
[24] = SK-MEL-2, Melanoma, single dose 10^−5 M, read-out: GI% (cell growth inhibition percentage)
[25] = PC-3, Prostate cancer, single dose 10^−5 M, read-out: GI% (cell growth inhibition percentage)
[26] = MALME-3M, Melanoma, single dose 10^−5 M
[27] = A549/ATCC, Non-small cell lung cancer, single dose 10^−5 M, read-out: GI% (cell growth inhibition percentage)
[28] = UACC-257, Melanoma, single dose 10^−5 M, read-out: GI% (cell growth inhibition percentage)
[29] = SW-620, Colon cancer, single dose 10^−5 M, read-out: GI% (cell growth inhibition percentage)
[30] = HS 578 T, Breast cancer, single dose 10^−5 M
[31] = UACC-62, Melanoma, single dose 10^−5 M, read-out: GI% (cell growth inhibition percentage)
[32] = T-47D, Breast cancer, single dose 10^−5 M
[33] = SK-MEL-28, Melanoma, single dose 10^−5 M, read-out: GI% (cell growth inhibition percentage)
[34] = HCT-15, Colon cancer, single dose 10^−5 M, read-out: GI% (cell growth inhibition percentage)
[35] = SNB-19, CNS cancer, single dose 10^−5 M, read-out: GI% (cell growth inhibition percentage)
[36] = UO-31, Renal cancer, single dose 10^−5 M, read-out: GI% (cell growth inhibition percentage)
[37] = IGROV-1, IGROV1, Ovarian cancer, single dose 10^−5 M, read-out: GI% (cell growth inhibition percentage)
[38] = MDA-MB-435, Melanoma, single dose 10^−5 M, read-out: GI% (cell growth inhibition percentage)
[39] = NCI-H460, Non-small cell lung cancer, single dose 10^−5 M, read-out: GI% (cell growth inhibition percentage)
[40] = HOP-92, Non-small cell lung cancer, single dose 10^−5 M, read-out: GI% (cell growth inhibition percentage)
[41] = Renal cancer, single dose 10^−5 M
[42] = OVCAR-3, Ovarian cancer, single dose 10^−5 M, read-out: GI% (cell growth inhibition percentage)
[43] = 786-0, Renal cancer, single dose 10^−5 M, read-out: GI% (cell growth inhibition percentage)
[44] = DU-145, Prostate cancer, single dose 10^−5 M, read-out: GI% (cell growth inhibition percentage)

## Cc1c(C(=O)N/N=C2\C(=O)N(C)c3ccccc32)oc2ccccc12 [Compound 7a]
[1]; Melanoma, single dose 10^−5 M
  inhibition at 10 µM: < 10%
[2]; [24]
  inhibition at 10 µM: < 10%
[3]; [25]
  inhibition at 10 µM: < 10%
[4]; [26]
  inhibition at 10 µM: < 10%
[5]; [27]
  inhibition at 10 µM: < 10%
[6]; [28]
  inhibition at 10 µM: < 10%
[7]; Leukaemia, single dose 10^−5 M
  inhibition at 10 µM: < 10%
[8]; [29]
  inhibition at 10 µM: 30.6%
[9]; [30]
  inhibition at 10 µM: < 10%
[10]; [31]
  inhibition at 10 µM: < 10%
[11]; [32]
  inhibition at 10 µM: 21.8%
[12]; [33]
  inhibition at 10 µM: < 10%
[13]; [34]
  inhibition at 10 µM: < 10%
[14]; [35]
  inhibition at 10 µM: < 10%
[15]; [36]
  inhibition at 10 µM: < 10%
[16]; [37]
  inhibition at 10 µM: 32.8%
[17]; [38]
  inhibition at 10 µM: < 10%
[18]; [39]
  inhibition at 10 µM: < 10%
[19]; [40]
  inhibition at 10 µM: < 10%
[20]; [41]
  inhibition at 10 µM: < 10%
[21]; [42]
  inhibition at 10 µM: < 10%
[22]; [43]
  inhibition at 10 µM: < 10%
[23]; [44]
  inhibition at 10 µM: < 10%

## Cc1c(C(=O)N/N=C2\C(=O)N(Cc3ccccc3)c3ccccc32)oc2ccccc12 [Compound 7d]
[1]
  inhibition at 10 µM: 13.8%
[2]; SK-MEL-2, read-out: GI% (cell growth inhibition percentage)
  inhibition at 10 µM: < 10%
[3]; PC-3, read-out: GI% (cell growth inhibition percentage)
  inhibition at 10 µM: 15.7%
[4]; Malme-3M
  inhibition at 10 µM: < 10%
[5]; A549, read-out: GI% (cell growth inhibition percentage)
  inhibition at 10 µM: < 10%
[6]; UACC-257, read-out: GI% (cell growth inhibition percentage)
  inhibition at 10 µM: < 10%
[7]
  inhibition at 10 µM: < 10%
[8]; SW-620, read-out: GI% (cell growth inhibition percentage)
  inhibition at 10 µM: 11.2%
[9]; Hs-578T
  inhibition at 10 µM: < 10%
[10]; UACC-62, read-out: GI% (cell growth inhibition percentage)
  inhibition at 10 µM: 20.6%
[11]
  inhibition at 10 µM: 33.3%
[12]; SK-MEL-28, read-out: GI% (cell growth inhibition percentage)
  inhibition at 10 µM: < 10%
[13]; HCT-15, read-out: GI% (cell growth inhibition percentage)
  inhibition at 10 µM: < 10%
[14]; SNB-19, read-out: GI% (cell growth inhibition percentage)
  inhibition at 10 µM: 11.6%
[15]; UO-31, read-out: GI% (cell growth inhibition percentage)
  inhibition at 10 µM: 33.6%
[16]; IGROV-1, read-out: GI% (cell growth inhibition percentage)
  inhibition at 10 µM: 33.6%
[17]; MDA-MB-435, read-out: GI% (cell growth inhibition percentage)
  inhibition at 10 µM: < 10%
[18]; NCI-H460, read-out: GI% (cell growth inhibition percentage)
  inhibition at 10 µM: 25%
[19]; HOP-92, read-out: GI% (cell growth inhibition percentage)
  inhibition at 10 µM: 12.6%
[20]
  inhibition at 10 µM: < 10%
[21]; OVCAR-3, read-out: GI% (cell growth inhibition percentage)
  inhibition at 10 µM: < 10%
[22]; 786-0, read-out: GI% (cell growth inhibition percentage)
  inhibition at 10 µM: < 10%
[23]; DU-145, read-out: GI% (cell growth inhibition percentage)
  inhibition at 10 µM: < 10%

## Cc1c(C(=O)N/N=C2\C(=O)Nc3ccc(Br)cc32)oc2ccccc12 [Compound 5c]
[1]; Melanoma, single dose 10^−5 M
  inhibition at 10 µM: 33.8%
[2]; [24]
  inhibition at 10 µM: < 10%
[3]; [25]
  inhibition at 10 µM: 13.8%
[4]; [26]
  inhibition at 10 µM: 64.9%
[5]; [27]
  inhibition at 10 µM: 27.9%
[6]; [28]
  inhibition at 10 µM: < 10%
[7]; Leukaemia, single dose 10^−5 M
  inhibition at 10 µM: 17.6%
[8]; [29]
  inhibition at 10 µM: 10.6%
[9]; [30]
  inhibition at 10 µM: 46.3%
[10]; [31]
  inhibition at 10 µM: 30.9%
[11]; [32]
  inhibition at 10 µM: 42.7%
[12]; [33]
  inhibition at 10 µM: < 10%
[13]; [34]
  inhibition at 10 µM: < 10%
[14]; [35]
  inhibition at 10 µM: 31.5%
[15]; [36]
  inhibition at 10 µM: 43.4%
[16]; [37]
  inhibition at 10 µM: 44.6%
[17]; [38]
  inhibition at 10 µM: < 10%
[18]; [39]
  inhibition at 10 µM: 42.6%
[19]; [40]
  inhibition at 10 µM: 26.5%
[20]; [41]
  inhibition at 10 µM: 29.8%
[21]; [42]
  inhibition at 10 µM: < 10%
[22]; [43]
  inhibition at 10 µM: 34.7%
[23]; [44]
  inhibition at 10 µM: 17%
